“Also recorded” adds a separate entry of the source. Where two headings read alike, the source gives them in different places.
Columns and labels:
Assay type in all cases: cell-based
[1] = tested on: HIV-1 strain IIIB (lymphocytotropic strain); assay: Single-round infection assay, cell-free X4 virus (lymphocytotropic strain); conditions: Human immunodeficiency virus 1, IIIB
Description: (§1) Anti-HIV activities of the compounds were evaluated according to the previously reported procedure. In summary, the HeLa (Human cervical carcinoma: ATCC CCL-2.1) cell line was used to measure the inactivation of both the cell-free virus preparations and virus-infected cell preparations. The cells were plated in culture plates 24 h prior to each experiment. Cell-free viral preparations of HIV-1 strains IIIB (lymphocytotropic strain) and BaL (monocytotropic strain) were used for the cell-free assay. For the cell-associated assay, the SulT1 cells were infected with IIIB virus 5 days prior to the experiment. Cell-free virus and virus-infected cells were mixed with different compounds and diluted to make different concentrations. The mixture was further diluted with the buffer and added to the HeLa cells.

[2] = Cytotoxicity assay (MTS); conditions: human, HeLa cells (ATCC CCL-2.1)
[3] = tested on: HIV-1 strain BaL (monocytotropic strain); assay: Single-round infection assay, cell-free R5 virus (monocytotropic strain); conditions: Human immunodeficiency virus 1, BAL
Description: as §1

[4] = tested on: HIV-1; assay: Anti-HIV activity overall (cell-free and cell-associated assays) and antiviral index
Text: Table 2, Table 3 and Table 4 illustrate the anti-HIV-1 activities against the cell-free, cell-associated, and multidrug-resistant virus and sperm inhibiting properties of the selected compounds. In summary, the anti-HIV activity of 5′-substituted derivatives of FLT and AZT (5–18) was dependent on the nature of the 5′-substituent. […] None of the other esters were active against cell-associated virus. […] The difference in the activity of fatty acyl derivatives of FLT compared to each other and FLT may be due to their differences in the rate of uptake and intracellular hydrolysis.
By design, the ester moiety in the conjugates needs to be hydrolyzed to render parent nucleosides and fatty acids to produce anti-HIV activity. The anti-HIV activities of 5′-O-ether substituted FLT and AZT (3 and 4, Scheme 2) with a stable tetradecanyl (myristyl) group were compared with hydrolyzable 5′-O-ester substituted FLT and AZT (6 and 7).
as §1

[5] = tested on: cell-associated HIV-1 IIIB (infected SulT1 cells); assay: Cell-associated transmission assay (IIIB); conditions: for EC50: Human immunodeficiency virus 1, IIIB
Description: as §1

[6] = tested on: HIV-1 4755-5 MDR (B-MDR); assay: PBMC multi-round infection assay, resistant isolate 4755-5; conditions: Human immunodeficiency virus 1, PBMC
Description: (§2) Based on a preliminary screening, conjugates 5 and 8 were evaluated for their ability to inhibit a drug-resistant virus in a peripheral blood mononuclear cell (PBMC) assay. In this assay, FLT, 5, and 8 were tested against B- and C-wild type and A-17 and 4755–5 multidrug-resistant (MDR) clinical isolates of HIV-1, where compounds were incubated with PBMCs for 6 h and then washed off before the addition of the virus and further culture for 7 days.
(§3) For the assessment of compounds against the wild type (WT; R5; clones = 94US3393IN [B subtype] and 98USMSC5016 [C subtype]) and drug-resistant (clones = 4755−5 and A17) HIV-1 clinical isolates, PHA-P stimulated cells from at least two normal donors were pooled, diluted in fresh media, and plated in the interior wells of a 96-well round-bottom microplate. Pooling PBMCs from more than one donor was used to minimize the variability observed between the individual donors, which results from the quantitative and qualitative differences in HIV infection and overall response to the PHA and IL-2 of primary lymphocyte populations. Each plate contained virus/cell control wells (cells + virus), experimental wells (drug + cells + virus), and compound control wells (drug + media, no cells, necessary for MTS monitoring of cytotoxicity). Test drug dilutions were prepared in microtiter tubes, and each concentration was placed in appropriate wells. Following the addition of the drug dilutions to the PBMCs, a predetermined dilution of virus stock was then placed in each test well (final MOI ≅ 0.1). Because HIV-1 is not cytopathic to PBMCs, the same assay plate can be used for both the antiviral efficacy and cytotoxicity measurements. Compounds were incubated with virus and cells in a 96-well format for 6 h. The cells were then washed by removing 75% of the medium (150 μL) and replacing it with 150 μL of fresh (no drug) medium. The plates were then centrifuged (∼200 g) for 10 min, after which 150 μL of the medium was removed, and an additional 150 μL of fresh medium was added to each well and further incubated for 6 days or until peak reverse transcriptase (RT) activity was detected. A microtiter plate-based RT reaction was utilized. Incorporated radioactivity (counts per minute, CPM) was quantified using standard liquid scintillation techniques. Compound IC50 (50%, inhibition of virus replication) was calculated using statistical software and regression analysis. A cellular uptake study was conducted for fluorescence conjugates 23 and 24 using a previously published procedure with minor modifications. All of the experiments were conducted in triplicate.

[7] = tested on: HIV-1 98USMSC5016 (C-Wild Type); assay: PBMC multi-round infection assay, clinical isolate 98USMSC5016; conditions: Human immunodeficiency virus 1
Description: as §2, §3

[8] = tested on: HIV-1 A-17 MDR (B-NNRTI); assay: PBMC multi-round infection assay, resistant isolate A-17; conditions: Human immunodeficiency virus 1, PBMC
Description: as §2, §3

[9] = tested on: HIV-1 94US3393IN (B-Wild Type); assay: PBMC multi-round infection assay, clinical isolate 94US3393IN; conditions: Human immunodeficiency virus 1
Description: as §2, §3

[10] = read-out: (X4) EC50, Table 2, single-round infection assay
[11] = Table 2, MTS, 50% effective concentration
[12] = read-out: (R5) EC50, Table 2, single-round infection assay
[13] = read-out: (CA) EC50, Table 2, cell-associated transmission assay (IIIB)
[14] = Table 2, single-round infection assay, read-out: (X4) EC50
[15] = Table 3, viral entry inhibition assay, read-out: (X4) EC50
[16] = Table 3, conjugates vs physical mixtures
[17] = Table 2, single-round infection assay, read-out: (R5) EC50
[18] = Table 3, viral entry inhibition assay, read-out: (R5) EC50
[19] = read-out: (CA) EC50, Table 3, cell-to-cell transmission assay (IIIB)
[20] = read-out: (X4) EC50, Table 3, viral entry inhibition assay
[21] = read-out: (R5) EC50, Table 3, viral entry inhibition assay

| Structure (SMILES) | EC50 [1, 10] [µM] | EC50 [2, 11] [µM] | EC50 [3, 12] [µM] | EC50 [5, 13] [µM] | further results |
| --- | --- | --- | --- | --- | --- |
| CCCCCCCCCCCCC(OC)C(=O)OC[C@H]1O[C@@H](n2cc(C)c(=O)[nH]c2=O)C[C@@H]1F (mixture of isomers) [Compound 13, (±)-3′-Fluoro-2′,3′-dideoxy-5′-O-(2-methoxyteradecanoyl)thymidine] | 1 | > 206 | 0.2 | > 206 | anti-HIV activity (in words) [4]: significant anti-HIV activity at noncytotoxic concentrations |
| CCCCCCCCCCCCC(OC)C(=O)OC[C@H]1O[C@@H](n2cc(C)c(=O)[nH]c2=O)C[C@@H]1N=[N+]=[N-] (mixture of isomers) [Compound 14, (±)-3′-Azido-2′,3′-dideoxy-5′-O-(2-methoxyteradecanoyl)thymidine] | 9.7 | > 197 | 6.7 | > 197 | – |
| Cc1cn([C@H]2C[C@H](N=[N+]=[N-])[C@@H](CO)O2)c(=O)[nH]c1=O [AZT, 3′-azido-2′,3′-dideoxythymidine, reference compound] | – | > 375 | – | > 375 | EC50 [1, 14]: 10.9 µM; EC50 [1, 15]: 10.9 µM; EC50 [2, 16]: > 374 µM; EC50 [3, 17]: 14.2 µM; EC50 [3, 18]: 14.2 µM; activity against cell-associated virus (in words) [5]: only inconsistently and moderately active; EC50 [5, 19]: > 374 µM |
| CCCCCCCCCCCCCCOCC1OC(n2cc(C)c(=O)[nH]c2=O)CC1F (stereo not shown) [Compound 3, 3′-Fluoro-2′,3′-dideoxy-5′-O-(tetradecanyl)thymidine] | 180 | 179 | 176 | > 227 | anti-HIV activity (in words) [4]: significantly less potent than the corresponding ester derivatives |
| CCCCCCCCCCCCCCOCC1OC(n2cc(C)c(=O)[nH]c2=O)CC1N=[N+]=[N-] (stereo not shown) [Compound 4, 3′-Azido-2′,3′-dideoxy-5′-O-(tetradecanyl)thymidine] | 125 | 205 | 27.6 | > 216 | anti-HIV activity (in words) [4]: significantly less potent than the corresponding ester derivatives |
| CCCCCCCCCCCCCC(=O)OC[C@H]1O[C@@H](n2cc(C)c(=O)[nH]c2=O)C[C@@H]1N=[N+]=[N-] [Compound 7] | 3.1 | > 629 | 5 | > 629 | EC50 [1, 20]: 3.1 µM; EC50 [2, 16]: > 629 µM; EC50 [3, 21]: 5 µM; EC50 [5, 19]: > 629 µM |
| CCSCCCCCCCCCCCC(=O)OC[C@H]1O[C@@H](n2cc(C)c(=O)[nH]c2=O)C[C@@H]1N=[N+]=[N-] [Compound 9] | 7.7 | > 101 | 5.2 | 90.7 | – |
| CCCCCCCCCCCCCCC(=O)OC[C@H]1O[C@@H](n2cc(C)c(=O)[nH]c2=O)C[C@@H]1N=[N+]=[N-] [Compound 10] | 17.9 | > 611 | 4.5 | > 611 | – |
| Cc1cn([C@H]2C[C@H](F)[C@@H](COC(=O)CCCCCCCCCCCBr)O2)c(=O)[nH]c1=O [Compound 11] | 1.8 | > 198 | < 0.2 | > 198 | – |
| Cc1cn([C@H]2C[C@H](N=[N+]=[N-])[C@@H](COC(=O)CCCCCCCCCCCBr)O2)c(=O)[nH]c1=O [Compound 12] | 14.8 | > 190 | 4.6 | > 190 | EC50 [1, 20]: 14.8 µM; EC50 [2, 16]: > 190 µM; EC50 [3, 21]: 4.6 µM; EC50 [5, 19]: > 190 µM |
| CCCCCSCCCCCCCC(=O)OC[C@H]1O[C@@H](n2cc(C)c(=O)[nH]c2=O)C[C@@H]1F [Compound 15] | 11.4 | > 64 | 4.4 | > 64 | – |
| CCCCCSCCCCCCCC(=O)OC[C@H]1O[C@@H](n2cc(C)c(=O)[nH]c2=O)C[C@@H]1N=[N+]=[N-] [Compound 16] | 9.3 | > 202 | 12.9 | > 202 | – |
| CCCCCCCCCCOCCC(=O)OC[C@H]1O[C@@H](n2cc(C)c(=O)[nH]c2=O)C[C@@H]1N=[N+]=[N-] [Compound 17] | 6.7 | > 209 | 2.1 | > 209 | – |
| CCCCCOCCCCCCCC(=O)OC[C@H]1O[C@@H](n2cc(C)c(=O)[nH]c2=O)C[C@@H]1N=[N+]=[N-] [Compound 18] | 4.8 | > 209 | 6.1 | > 209 | – |
| Cc1cn(C2CC(F)C(COC(=O)CCCCCCCCCCCN)O2)c(=O)[nH]c1=O (stereo not shown) [Compound 22, 3′-Fluoro-2′,3′-dideoxy-5′-O-(12-aminododecanoyl)thymidine] | 3.4 | > 226 | 1.6 | > 227 | anti-HIV activity (in words) [4]: comparable to other fatty acyl derivatives of FLT |
| Cc1cn([C@H]2C[C@H](F)[C@@H](CO)O2)c(=O)[nH]c1=O [FLT, 3′-fluoro-2′,3′-dideoxythymidine] | – | > 410 | – | > 410 | IC50 [6]: 0.107 µM; IC90 [6]: 1.06 µM; EC50 [1, 14]: 0.8 µM; EC50 [1, 15]: 0.8 µM; IC50 [7]: 0.002 µM; IC90 [7]: 0.0123 µM; IC50 [8]: 0.026 µM; IC90 [8]: 0.0872 µM; EC50 [2, 16]: > 410 µM; EC50 [3, 17]: 0.4 µM; EC50 [3, 18]: 0.4 µM; IC50 [9]: 0.002 µM; IC90 [9]: 0.0204 µM; activity against cell-associated virus (in words) [5]: only inconsistently and moderately active; also recorded: not active at all; EC50 [5, 19]: > 410 µM |

Reference: paper PMC9143043, “Synthesis and Biological Evaluation of 5′-O-Fatty Acyl Ester Derivatives of 3′-Fluoro-2′,3′-dideoxythymidine as Potential Anti-HIV Microbicides” (Molecules, 2022)
